What all share (format): in vivo, human
Common to all, as to conditions: patient history before treatment with Example 1

The nature of test [1]: Case 1: topical treatment of a person.
Text: A diagnosis of periorbital dermatitis with lichenification was made and treatment using the formulation of Example 1 commenced.
Test [2] can be described thus: Case 7: topical treatment of a person. From the text: A person with several year history of an itchy rash on the dorsum of their right foot presented (see FIG. 7A). They had previously tried many creams including various antifungal treatments, antibiotics and steroids, Particularly, they had tried Kenacomb™ (Triamcinolone acetonide, nystatin, gramicidin, neomycin); Mometasone Furoate 0.1% (Elocon™); Terbinafine Hydrochloride 1.0% (Lamisil™); Clotrimazole (sold under the trade name Canestan™) and Mupirocin (2% w/w) (sold under the trade name Bactroban™). […] There were areas of broken skin with scattered scab formation.
A diagnosis of chronic dermatitis with lichenification was made and treatment commenced with the composition of Example 1.
In less than one week the rash had disappeared (FIG. 7B).

The nature of test [3]: Case 8: topical treatment of a child.

Structures are written as SMILES. Where a name gives a salt, the structure may show the parent alone.

`CN(C/C=C/C#CC(C)(C)C)Cc1cccc2ccccc12` [Terbinafine Hydrochloride 1.0%, Terbinafine Hydrochloride]: the “outcome of previously used treatments” value in test [1] is listed as “no long term improvement”. Besides, the “outcome of previously tried treatments” value in test [2] is “None of the treatments gave them any long term results”. Moreover, the “outcome of previously tried products” value in test [3] was “no permanent improvement”. Regarding `CCC(=O)O[C@]1(C(=O)COC(C)=O)CC[C@H]2[C@@H]3C[C@H](C)C4=CC(=O)C=C[C@]4(C)[C@H]3[C@@H](O)C[C@@]21C` [Methylprednisolone aceponate], the “outcome of previously tried products” value in test [3] is recorded as “no permanent improvement”.

`Clc1ccccc1C(c1ccccc1)(c1ccccc1)n1ccnc1` [Clotrimazole]: the “outcome of previously tried treatments” value in test [2] was “None of the treatments gave them any long term results”. The “outcome of previously tried products” value in test [3] is reported as “no permanent improvement”. Turning to `C[C@@H]1C[C@H]2[C@@H]3CCC4=CC(=O)C=C[C@]4(C)[C@@]3(Cl)[C@@H](O)C[C@]2(C)[C@@]1(OC(=O)c1ccco1)C(=O)CCl` [Mometasone Furoate 0.1%, Mometasone Furoate], the “outcome of previously used treatments” value in test [1] is on record as “no long term improvement”. Besides, the “outcome of previously tried treatments” value in test [2] is given as “None of the treatments gave them any long term results”. As to `C/C(=C\C(=O)OCCCCCCCCC(=O)O)C[C@@H]1OC[C@H](C[C@@H]2O[C@H]2[C@@H](C)[C@H](C)O)[C@@H](O)[C@H]1O` [Mupirocin (2% w/w), Mupirocin], the “outcome of previously tried treatments” value in test [2] is “None of the treatments gave them any long term results”. For `CCC(=O)OCC(=O)[C@@]1(OC(=O)CC)[C@@H](C)C[C@H]2[C@@H]3CCC4=CC(=O)C=C[C@]4(C)[C@@]3(F)[C@@H](O)C[C@@]21C` [Betamethasone dipropionate 0.05%, Betamethasone dipropionate], in test [3], the “outcome of previously tried products” value is on record as “no permanent improvement”. `CC(=O)OCC(=O)[C@@]1(O)CC[C@H]2[C@@H]3CCC4=CC(=O)CC[C@]4(C)[C@H]3[C@@H](O)C[C@@]21C` [Hydrocosrtisone acetate 1%, Hydrocosrtisone acetate]: in test [1], the “outcome of previously used treatments” value is given as “no long term improvement”. Also, the “outcome of previously tried products” value in test [3] is “no permanent improvement”.

Source of the values: patent US20140057881A1, “Composition for the Treatment of Skin Conditions” (priority 2010, published 2014).
